Numbers after ± are expanded uncertainties.
What was measured:
[1] = refractive index (Na D-line) (dimensionless); xn = mol fraction of the nth substance listed; details: 101 kPa, Liquid
[2] = xn = mol fraction of the nth substance listed; details: 101 kPa, Liquid

ClC(Cl)C(Cl)Cl [1,1,2,2-tetrachloroethane] + COc1ccccc1
Details	mass density, 298.15 K [kg/m3]	mass density, 303.15 K [kg/m3]	mass density, 308.15 K [kg/m3]	refractive index, 298.15 K	refractive index, 303.15 K	refractive index, 308.15 K	speed of sound, 298.15 K [m/s]	viscosity, 298.15 K [mPa·s]	viscosity, 303.15 K [mPa·s]	viscosity, 308.15 K [mPa·s]
[1], x2 = 0	–	–	–	1.4922 ± 0.0024	1.4894 ± 0.0024	1.4865 ± 0.0024	–	–	–	–
[1], x2 = 0.1003	–	–	–	1.4943 ± 0.0024	1.4915 ± 0.0024	1.4887 ± 0.0024	–	–	–	–
[1], x2 = 0.2021	–	–	–	1.4966 ± 0.0024	1.4937 ± 0.0024	1.4909 ± 0.0024	–	–	–	–
[1], x2 = 0.303	–	–	–	1.4989 ± 0.0024	1.496 ± 0.0024	1.4931 ± 0.0024	–	–	–	–
[1], x2 = 0.3939	–	–	–	1.5009 ± 0.0024	1.498 ± 0.0024	1.4952 ± 0.0024	–	–	–	–
[1], x2 = 0.4986	–	–	–	1.5032 ± 0.0024	1.5005 ± 0.0024	1.4977 ± 0.0024	–	–	–	–
[1], x2 = 0.5975	–	–	–	1.5055 ± 0.0024	1.5028 ± 0.0024	1.5 ± 0.0024	–	–	–	–
[1], x2 = 0.6972	–	–	–	1.508 ± 0.0024	1.5052 ± 0.0024	1.5023 ± 0.0024	–	–	–	–
[1], x2 = 0.7983	–	–	–	1.5105 ± 0.0024	1.5076 ± 0.0024	1.505 ± 0.0024	–	–	–	–
[1], x2 = 0.9012	–	–	–	1.5129 ± 0.0024	1.51 ± 0.0024	1.5072 ± 0.0024	–	–	–	–
[2], x2 = 0	1587.8 ± 3.5	1580.6 ± 3.6	1573.3 ± 3.6	–	–	–	1153 ± 7	1.591 ± 0.049	1.471 ± 0.045	1.361 ± 0.042
[2], x2 = 0.1003	1526.3 ± 3.4	1519.4 ± 3.4	1512.6 ± 3.5	–	–	–	1172 ± 7	1.555 ± 0.048	1.439 ± 0.045	1.323 ± 0.041
[2], x2 = 0.2021	1464.3 ± 3.2	1457.7 ± 3.3	1451.2 ± 3.3	–	–	–	1193 ± 7	1.518 ± 0.047	1.404 ± 0.044	1.29 ± 0.04
[2], x2 = 0.303	1403.1 ± 3	1396.9 ± 3.1	1390.6 ± 3.2	–	–	–	1214 ± 7	1.47 ± 0.045	1.362 ± 0.042	1.253 ± 0.039
[2], x2 = 0.3939	1348.3 ± 2.9	1342.2 ± 3	1336.2 ± 3.1	–	–	–	1235 ± 7	1.419 ± 0.044	1.315 ± 0.041	1.21 ± 0.038
[2], x2 = 0.4986	1285.5 ± 2.8	1279.9 ± 2.8	1274 ± 2.9	–	–	–	1262 ± 7	1.355 ± 0.042	1.255 ± 0.039	1.155 ± 0.037
[2], x2 = 0.5975	1226.5 ± 2.6	1221.1 ± 2.7	1215.6 ± 2.8	–	–	–	1289 ± 7	1.292 ± 0.04	1.196 ± 0.038	1.1 ± 0.035
[2], x2 = 0.6972	1167.2 ± 2.5	1162.1 ± 2.5	1156.9 ± 2.6	–	–	–	1317 ± 7	1.224 ± 0.039	1.131 ± 0.036	1.038 ± 0.033
[2], x2 = 0.7983	1107.6 ± 2.3	1102.7 ± 2.4	1097.7 ± 2.5	–	–	–	1347 ± 7	1.149 ± 0.036	1.064 ± 0.034	0.979 ± 0.032
[2], x2 = 0.9012	1047 ± 2.2	1042.8 ± 2.2	1037.4 ± 2.3	–	–	–	1379 ± 8	1.074 ± 0.034	0.994 ± 0.032	0.914 ± 0.03

C1COCCO1 [1,4-dioxane] + COc1ccccc1
x2 = 0
Details	mass density, 298.15 K [kg/m3]	mass density, 303.15 K [kg/m3]	mass density, 308.15 K [kg/m3]	refractive index, 298.15 K	refractive index, 303.15 K	refractive index, 308.15 K	speed of sound, 298.15 K [m/s]	viscosity, 298.15 K [mPa·s]	viscosity, 303.15 K [mPa·s]	viscosity, 308.15 K [mPa·s]
[1]	–	–	–	1.4181 ± 0.0024	1.4176 ± 0.0024	1.4141 ± 0.0024	–	–	–	–
[2]	1028.3 ± 2.1	1023.1 ± 2.2	1017.8 ± 2.2	–	–	–	1345 ± 7	1.415 ± 0.044	1.171 ± 0.1	1.068 ± 0.034

OCCCl [1-chloro-2-hydroxyethane] + COc1ccccc1
Details	mass density, 298.15 K [kg/m3]	mass density, 303.15 K [kg/m3]	mass density, 308.15 K [kg/m3]	refractive index, 298.15 K	refractive index, 303.15 K	refractive index, 308.15 K	speed of sound, 298.15 K [m/s]	viscosity, 298.15 K [mPa·s]	viscosity, 303.15 K [mPa·s]	viscosity, 308.15 K [mPa·s]
[1], x2 = 0	–	–	–	1.4411 ± 0.0024	1.438 ± 0.0024	1.4326 ± 0.0024	–	–	–	–
[1], x2 = 0.103	–	–	–	1.4495 ± 0.0024	1.4793 ± 0.04	1.4468 ± 0.0024	–	–	–	–
[1], x2 = 0.209	–	–	–	1.461 ± 0.0024	1.4586 ± 0.0024	1.4564 ± 0.0024	–	–	–	–
[1], x2 = 0.313	–	–	–	1.4712 ± 0.0024	1.4684 ± 0.0024	1.4652 ± 0.0024	–	–	–	–
[1], x2 = 0.395	–	–	–	1.4767 ± 0.0024	1.4745 ± 0.0024	1.4723 ± 0.0024	–	–	–	–
[1], x2 = 0.49	–	–	–	1.4836 ± 0.0024	1.4807 ± 0.0024	1.4778 ± 0.0024	–	–	–	–
[1], x2 = 0.59	–	–	–	1.4899 ± 0.0024	1.4879 ± 0.0024	1.4859 ± 0.0024	–	–	–	–
[1], x2 = 0.69	–	–	–	1.4978 ± 0.0024	1.4951 ± 0.0024	1.4923 ± 0.0024	–	–	–	–
[1], x2 = 0.797	–	–	–	1.5034 ± 0.0024	1.5011 ± 0.0024	1.4999 ± 0.0024	–	–	–	–
[1], x2 = 0.898	–	–	–	1.5094 ± 0.0024	1.5067 ± 0.0024	1.5041 ± 0.0024	–	–	–	–
[2], x2 = 0	1200.9 ± 2.5	1192.5 ± 2.6	1187.1 ± 2.7	–	–	–	1358 ± 8	3.104 ± 0.091	2.669 ± 0.079	2.347 ± 0.07
[2], x2 = 0.103	1165.8 ± 2.4	1158.6 ± 2.5	1153.9 ± 2.6	–	–	–	1365 ± 8	2.6 ± 0.077	2.334 ± 0.069	2.068 ± 0.062
[2], x2 = 0.209	1134.5 ± 2.4	1129 ± 2.4	1123.7 ± 2.5	–	–	–	1372 ± 8	2.13 ± 0.064	1.943 ± 0.059	1.755 ± 0.053
[2], x2 = 0.313	1107.6 ± 2.3	1102.5 ± 2.4	1097.5 ± 2.4	–	–	–	1378 ± 8	1.778 ± 0.054	1.631 ± 0.05	1.485 ± 0.046
[2], x2 = 0.395	1088.7 ± 2.2	1083.9 ± 2.3	1078.8 ± 2.4	–	–	–	1382 ± 8	1.583 ± 0.049	1.452 ± 0.045	1.32 ± 0.041
[2], x2 = 0.49	1068.8 ± 2.2	1064.3 ± 2.3	1058.9 ± 2.4	–	–	–	1388 ± 8	1.418 ± 0.044	1.289 ± 0.04	1.16 ± 0.037
[2], x2 = 0.59	1049.8 ± 2.1	1044.8 ± 2.2	1040.1 ± 2.3	–	–	–	1392 ± 8	1.269 ± 0.04	1.158 ± 0.037	1.046 ± 0.034
[2], x2 = 0.69	1032.5 ± 2.1	1027.5 ± 2.2	1023 ± 2.3	–	–	–	1397 ± 8	1.155 ± 0.037	1.064 ± 0.034	0.972 ± 0.031
[2], x2 = 0.797	1015.9 ± 2.1	1010 ± 2.1	1006.6 ± 2.2	–	–	–	1402 ± 8	1.087 ± 0.035	1.004 ± 0.032	0.921 ± 0.03
[2], x2 = 0.898	1001.9 ± 2	996.1 ± 2.1	992.5 ± 2.2	–	–	–	1406 ± 8	1.007 ± 0.032	0.936 ± 0.03	0.865 ± 0.028
